Laboratory results from ChEMBL document CHEMBL1201862, “PubChem BioAssay data set” (2004).
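All cell lines were grown in 96-well plates and treated with compound for 48 hours. The concentration for 50% growth inhibition is given as GI50.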 Active and inactive are the calls of the source. No stated cut-off is given here; in the data, active = GI50 up to about 1.1 µM and inactive = higher.

Assays:
Assay in all cases: DTP human tumour cell line panel, 48 h
[1] = test system: MDA-MB-231
[2] = test system: TK-10
[3] = test system: CCRF-CEM
[4] = test system: NCI-H522
[5] = test system: SK-MEL-2
[6] = test system: U-251
[7] = test system: IGROV-1
[8] = test system: HCT-116
[9] = test system: NCI/ADR-RES
[10] = test system: SK-MEL-5
[11] = test system: Hs-578T
[12] = test system: A498
[13] = test system: OVCAR-5
[14] = test system: MOLT-4
[15] = test system: SK-MEL-28
[16] = test system: SF-295
[17] = test system: HCC 2998
[18] = test system: Malme-3M
[19] = test system: T47D
[20] = test system: RPMI-8226

Compound | GI50 [1] | GI50 [2] | GI50 [3] | GI50 [4] | GI50 [5] | GI50 [6] | GI50 [7] | GI50 [8] | GI50 [9] | GI50 [10] | GI50 [11] | GI50 [12] | GI50 [13] | GI50 [14] | GI50 [15] | GI50 [16] | GI50 [17] | GI50 [18] | GI50 [19] | GI50 [20]
c1ccc(CCNCc2ccco2)nc1 | > 100 µM (inactive) | > 100 µM (inactive) | > 48.6 µM (inactive) | > 100 µM (inactive) | > 100 µM (inactive) | > 100 µM (inactive) | > 100 µM (inactive) | > 100 µM (inactive) | > 100 µM (inactive) | > 100 µM (inactive) | > 100 µM (inactive) | > 100 µM (inactive) | > 100 µM (inactive) | > 100 µM (inactive) | > 100 µM (inactive) | > 100 µM (inactive) | > 100 µM (inactive) | > 100 µM (inactive) | – | –
COC(=O)C(Cc1ccccc1)NC(=O)C(CCCNC(=N)N)NC(=O)OCc1ccccc1 (centres undefined) | > 100 µM (inactive) | > 100 µM (inactive) | > 100 µM (inactive) | > 100 µM (inactive) | – | > 100 µM (inactive) | > 100 µM (inactive) | > 100 µM (inactive) | > 100 µM (inactive) | > 100 µM (inactive) | > 100 µM (inactive) | – | > 100 µM (inactive) | > 100 µM (inactive) | > 100 µM (inactive) | > 100 µM (inactive) | > 100 µM (inactive) | > 100 µM (inactive) | > 100 µM (inactive) | > 100 µM (inactive)
COC(=O)/C=C(\CC(=O)OC)n1nnnc1[C@@H]1C[C@H](COC(c2ccccc2)(c2ccccc2)c2ccccc2)[C@H]2OC(C)(C)O[C@H]21 | > 100 µM (inactive) | > 100 µM (inactive) | 22.9 µM (inactive) | 51.6 µM (inactive) | > 100 µM (inactive) | > 100 µM (inactive) | 60.5 µM (inactive) | 89.1 µM (inactive) | – | 76.7 µM (inactive) | 68.4 µM (inactive) | > 100 µM (inactive) | > 100 µM (inactive) | > 100 µM (inactive) | > 100 µM (inactive) | > 100 µM (inactive) | – | > 100 µM (inactive) | 20.8 µM (inactive) | 11.1 µM (inactive)
S=C1CSc2c(ccc3ccccc23)N1 | > 100 µM (inactive) | > 100 µM (inactive) | > 100 µM (inactive) | > 100 µM (inactive) | – | > 100 µM (inactive) | > 100 µM (inactive) | > 100 µM (inactive) | > 100 µM (inactive) | > 100 µM (inactive) | 51.4 µM (inactive) | – | > 100 µM (inactive) | 9.98 µM (inactive) | > 100 µM (inactive) | > 100 µM (inactive) | – | > 100 µM (inactive) | > 100 µM (inactive) | > 100 µM (inactive)
CN1C2CC(=O)CC1[C@@H]1OC(c3ccccc3)O[C@H]21 (some centres undefined) | > 100 µM (inactive) | > 100 µM (inactive) | > 100 µM (inactive) | > 100 µM (inactive) | > 100 µM (inactive) | > 100 µM (inactive) | > 100 µM (inactive) | > 100 µM (inactive) | > 100 µM (inactive) | > 100 µM (inactive) | > 100 µM (inactive) | – | – | > 100 µM (inactive) | > 100 µM (inactive) | > 100 µM (inactive) | > 100 µM (inactive) | > 100 µM (inactive) | > 100 µM (inactive) | > 100 µM (inactive)
S=C(NCCc1ccccn1)N/N=C/c1ccccn1 | < 0.01 µM (active) | 0.42 µM (active) | < 0.01 µM (active) | < 0.01 µM (active) | 0.0457 µM (active) | – | < 0.01 µM (active) | < 0.01 µM (active) | 0.0147 µM (active) | 0.182 µM (active) | – | – | < 0.018 µM (active) | < 0.0108 µM (active) | 1.87 µM (inactive) | 0.964 µM (active) | 3.06 µM (inactive) | 2.62 µM (inactive) | < 0.01 µM (active) | < 0.01 µM (active)
O=C(c1cccc(C(=O)c2ccc3c4c(cccc24)C(=O)N(c2ccccc2)C3=O)c1)c1ccc2c3c(cccc13)C(=O)N(c1ccccc1)C2=O | 67.1 µM (inactive) | 69.8 µM (inactive) | – | > 100 µM (inactive) | – | > 100 µM (inactive) | 63.7 µM (inactive) | > 100 µM (inactive) | > 100 µM (inactive) | > 100 µM (inactive) | 52.8 µM (inactive) | 17.3 µM (inactive) | > 100 µM (inactive) | > 100 µM (inactive) | > 100 µM (inactive) | 71.9 µM (inactive) | > 100 µM (inactive) | > 100 µM (inactive) | – | > 100 µM (inactive)
CSC1=N/C(=C\c2ccc(Cl)cc2)C(=O)N1CN1CCCCC1 | 42.1 µM (inactive) | 31.6 µM (inactive) | 26.5 µM (inactive) | 27.4 µM (inactive) | 67.5 µM (inactive) | 47.8 µM (inactive) | 7.38 µM (inactive) | 37.7 µM (inactive) | 54.3 µM (inactive) | 32.4 µM (inactive) | 20.7 µM (inactive) | 17.7 µM (inactive) | 99.1 µM (inactive) | 62.7 µM (inactive) | > 100 µM (inactive) | 35.5 µM (inactive) | – | 25.5 µM (inactive) | – | 37.4 µM (inactive)
OC(c1cccs1)c1cc2ccccc2s1 (centres undefined) | > 10 µM (inactive) | > 10 µM (inactive) | > 10 µM (inactive) | > 10 µM (inactive) | > 10 µM (inactive) | > 10 µM (inactive) | > 10 µM (inactive) | > 10 µM (inactive) | > 10 µM (inactive) | > 10 µM (inactive) | > 10 µM (inactive) | – | > 10 µM (inactive) | > 10 µM (inactive) | > 10 µM (inactive) | > 10 µM (inactive) | > 10 µM (inactive) | – | > 10 µM (inactive) | > 10 µM (inactive)
CC(=O)Oc1cc(OC(C)=O)c2c(c1C)CC[C@@H]1[C@@H]2CC[C@]2(C)[C@@H](OC(C)=O)CC[C@@H]12 | 16.1 µM (inactive) | 20 µM (inactive) | 17.5 µM (inactive) | 16.7 µM (inactive) | – | 18 µM (inactive) | 17.2 µM (inactive) | 15.8 µM (inactive) | 22.5 µM (inactive) | 17.1 µM (inactive) | 21.9 µM (inactive) | 18.9 µM (inactive) | > 10 µM (inactive) | 11.9 µM (inactive) | 19 µM (inactive) | 23 µM (inactive) | 20.7 µM (inactive) | 15.6 µM (inactive) | – | 8.15 µM (inactive)
CCCCCCc1cc2cc(C(=O)Nc3ccccc3F)c(=N)oc2cc1O | – | – | 4.76 µM (inactive) | 2.69 µM (inactive) | 7.21 µM (inactive) | 4.81 µM (inactive) | 3.34 µM (inactive) | 5.7 µM (inactive) | 2.64 µM (inactive) | 3.19 µM (inactive) | 11.4 µM (inactive) | 14.4 µM (inactive) | 21.2 µM (inactive) | 3.21 µM (inactive) | 7.69 µM (inactive) | 12.1 µM (inactive) | 18.7 µM (inactive) | 6.12 µM (inactive) | 3.51 µM (inactive) | 3.66 µM (inactive)
CC[C@@]1(CCC(=O)NCCc2c[nH]c3ccccc23)CCC(=O)N2CCc3c([nH]c4ccccc34)[C@H]21 | 40.7 µM (inactive) | 16.7 µM (inactive) | 7.33 µM (inactive) | 3.9 µM (inactive) | 17.1 µM (inactive) | 29.8 µM (inactive) | 4.04 µM (inactive) | 11.8 µM (inactive) | 4.57 µM (inactive) | 24.2 µM (inactive) | – | 27.1 µM (inactive) | 22.8 µM (inactive) | 3.71 µM (inactive) | 39.4 µM (inactive) | 5.13 µM (inactive) | 14.2 µM (inactive) | 5.35 µM (inactive) | 28.7 µM (inactive) | 3.08 µM (inactive)
COc1ccc([C@H](NC(=O)c2ccccc2)[C@@H](O)C(=O)O[C@H]2C[C@@]3(O)C(OC(=O)c4ccccc4)C4[C@](C)(C(=O)[C@H](OC(C)=O)C(=C2C)C3(C)C)[C@@H](O)C[C@H]2OC[C@@]42OC(C)=O)cc1 (some centres undefined) | > 10 µM (inactive) | 0.0703 µM (active) | 0.00184 µM (active) | 0.00227 µM (active) | 0.00705 µM (active) | 0.00695 µM (active) | 0.00344 µM (active) | < 0.001 µM (active) | > 6.43 µM (inactive) | 0.00244 µM (active) | < 0.001 µM (active) | – | 0.182 µM (active) | 0.00286 µM (active) | 0.00593 µM (active) | 0.0783 µM (active) | 0.00301 µM (active) | 0.0028 µM (active) | – | < 0.001 µM (active)
COc1cc(C2c3cc4c(cc3[C@H](NC(=O)c3cccs3)C3COC(=O)[C@H]23)OCO4)cc(OC)c1OC (some centres undefined) | < 0.01 µM (active) | > 40.9 µM (inactive) | < 0.0179 µM (active) | < 0.01 µM (active) | 34.1 µM (inactive) | < 0.0148 µM (active) | 0.0147 µM (active) | < 0.0131 µM (active) | 0.026 µM (active) | < 0.014 µM (active) | – | 0.012 µM (active) | > 46.9 µM (inactive) | < 0.0149 µM (active) | 0.0708 µM (active) | < 0.01 µM (active) | < 0.0181 µM (active) | 92.3 µM (inactive) | 46.7 µM (inactive) | 0.0134 µM (active)
Cn1cnc2c(OCC3CCCCC3)nc(N)nc21 | > 100 µM (inactive) | > 100 µM (inactive) | > 100 µM (inactive) | > 100 µM (inactive) | > 100 µM (inactive) | > 100 µM (inactive) | 36.5 µM (inactive) | > 100 µM (inactive) | > 100 µM (inactive) | 70.6 µM (inactive) | > 100 µM (inactive) | – | > 100 µM (inactive) | > 100 µM (inactive) | > 100 µM (inactive) | > 100 µM (inactive) | > 100 µM (inactive) | > 100 µM (inactive) | – | > 100 µM (inactive)
